{"source": "patent US12279615B2", "about": "“Wood preservative and method for producing same” (Koppers Performance Chemicals Inc., priority 2016, dated 2025)", "key": {"Postia placenta": {"test_system": "Postia placenta", "experiment": "Laboratory soil-block decay resistance test, AWPA Standard E10-2015, treated southern pine sapwood cubes", "format": "cell-based", "conditions": "micronized penflufen", "experimental": "(§1) The synergism was determined using a modified method as described by Kull et al. (Applied Microbiology, 1961 (9): 538-541). The modified method is described as below: QA/Qa+QB/Qb=SI • Where: • Qa=concentration of substance A alone which controls a particular decay fungus • Qb=concentration of substance B alone which controls a particular decay fungus • QA=concentration of substance A in the concentration of the A and B mixture at which controls a particular decay fungus • QB=concentration of substance B in the concentration of the A and B mixture at which controls a particular decay fungus • SI=1 means additivity • SI>1 means antagonism • SI<1 means synergism\n(§2) Wood cubes measuring 19 mm×19 mm×19 mm were prepared from southern pine sapwood. One set of wood cubes were pressured treated with serial treating solutions containing penflufen fungicide. A second set of wood cubes were pressure treated with treating solutions containing the copper fungicide. A third set of wood cubes were pressure treated with treating solutions containing a mixture of the copper and penflufen. The treated wood samples were exposed to various fungi to conduct a laboratory decay resistance test following protocols as described in American Wood Protection Association Standard E10-2015. Before and after exposure to fungi, the wood samples were weighed to determine the weight percent loss. No weight loss means complete control of the fungal attack.\n(§3) Wood cubes measuring 19 mm×19 mm×19 mm were prepared from southern pine sapwood. The wood cubes were pressure treated with treating solutions containing micronized penflufen. The treated wood samples were exposed to various fungi to conduct a laboratory decay resistance test following protocols as described in American Wood Protection Association Standard E10-2015. Before and after exposure to fungi, the wood samples were weighed to determine the weight percent loss."}, "Coniophora puteana": {"test_system": "Coniophora puteana", "experiment": "Laboratory soil-block decay resistance test, AWPA Standard E10-2015, treated southern pine sapwood cubes", "format": "cell-based", "conditions": "micronized penflufen", "experimental": "as §1, §2, §3"}, "Gloeophyllum trabeum": {"test_system": "Gloeophyllum trabeum", "experiment": "Laboratory soil-block decay resistance test, AWPA Standard E10-2015, treated southern pine sapwood cubes", "format": "cell-based", "conditions": "micronized penflufen", "experimental": "as §1, §2, §3"}, "Fibroporia radiculosa": {"test_system": "Fibroporia radiculosa", "experiment": "Laboratory soil-block decay resistance test, AWPA Standard E10-2015, treated southern pine sapwood cubes", "format": "cell-based", "conditions": "micronized penflufen", "experimental": "as §1, §2, §3"}, "[1]": {"experiment": "Particle size of penflufen after milling with 1 mm zirconia", "format": "physicochemical", "conditions": "milled with 1 mm zirconia", "description": "The attainment of the injectable size, which generally requires both a d50 below 0.5 microns and a d98 less than three times the d50, was a surprising development. […] Milling a milling-resistant organic biocide, such as penflufen, with 1 mm zirconia provided a penflufen product with a d50 of 2 to 3 microns."}}, "data": [{"smiles": "Cc1nn(C)c(F)c1C(=O)Nc1ccccc1C(C)CC(C)C", "note": "(stereo not drawn) [Penflufen, penflufen]", "values": [{"measurement": "Mean Percent Weigh Loss of Treated Wood Cubes", "setting": "Postia placenta; Penflufen Retention 8 g/m^3", "result": 3.5, "unit": "%"}, {"measurement": "Mean Percent Weigh Loss of Treated Wood Cubes", "setting": "Postia placenta; Penflufen Retention 12 g/m^3", "result": 1.9, "unit": "%"}, {"measurement": "Mean Percent Weigh Loss of Treated Wood Cubes", "setting": "Postia placenta; Penflufen Retention 16 g/m^3", "result": 2.1, "unit": "%"}, {"measurement": "Mean Percent Weigh Loss of Treated Wood Cubes", "setting": "Postia placenta; Penflufen Retention 24 g/m^3", "result": 1.2, "unit": "%"}, {"measurement": "Mean Percent Weigh Loss of Treated Wood Cubes", "setting": "Postia placenta; Penflufen Retention 32 g/m^3", "result": 1.2, "unit": "%"}, {"measurement": "Mean Percent Weigh Loss of Treated Wood Cubes", "setting": "Postia placenta; Penflufen Retention 48 g/m^3", "result": 1.1, "unit": "%"}, {"measurement": "Mean Percent Weigh Loss of Treated Wood Cubes", "setting": "Postia placenta; Penflufen Retention 64 g/m^3", "result": 1.1, "unit": "%"}, {"measurement": "Mean Percent Weigh Loss of Treated Wood Cubes", "setting": "Postia placenta; Penflufen Retention 80 g/m^3", "result": 1.3, "unit": "%"}, {"measurement": "Mean Percent Weigh Loss of Treated Wood Cubes", "setting": "Coniophora puteana; Penflufen Retention 8 g/m^3", "result": 1.4, "unit": "%"}, {"measurement": "Mean Percent Weigh Loss of Treated Wood Cubes", "setting": "Coniophora puteana; Penflufen Retention 12 g/m^3", "result": 1.6, "unit": "%"}, {"measurement": "Mean Percent Weigh Loss of Treated Wood Cubes", "setting": "Coniophora puteana; Penflufen Retention 16 g/m^3", "result": 1.6, "unit": "%"}, {"measurement": "Mean Percent Weigh Loss of Treated Wood Cubes", "setting": "Coniophora puteana; Penflufen Retention 24 g/m^3", "result": 1.5, "unit": "%"}, {"measurement": "Mean Percent Weigh Loss of Treated Wood Cubes", "setting": "Coniophora puteana; Penflufen Retention 32 g/m^3", "result": 1.1, "unit": "%"}, {"measurement": "Mean Percent Weigh Loss of Treated Wood Cubes", "setting": "Coniophora puteana; Penflufen Retention 48 g/m^3", "result": 1.4, "unit": "%"}, {"measurement": "Mean Percent Weigh Loss of Treated Wood Cubes", "setting": "Coniophora puteana; Penflufen Retention 64 g/m^3", "result": 2.0, "unit": "%"}, {"measurement": "Mean Percent Weigh Loss of Treated Wood Cubes", "setting": "Coniophora puteana; Penflufen Retention 80 g/m^3", "result": 1.3, "unit": "%"}, {"measurement": "Mean Percent Weigh Loss of Treated Wood Cubes", "setting": "Gloeophyllum trabeum; Penflufen Retention 8 g/m^3", "result": 3.1, "unit": "%"}, {"measurement": "Mean Percent Weigh Loss of Treated Wood Cubes", "setting": "Gloeophyllum trabeum; Penflufen Retention 12 g/m^3", "result": 2.9, "unit": "%"}, {"measurement": "Mean Percent Weigh Loss of Treated Wood Cubes", "setting": "Gloeophyllum trabeum; Penflufen Retention 16 g/m^3", "result": 3.6, "unit": "%"}, {"measurement": "Mean Percent Weigh Loss of Treated Wood Cubes", "setting": "Gloeophyllum trabeum; Penflufen Retention 24 g/m^3", "result": 3.0, "unit": "%"}, {"measurement": "Mean Percent Weigh Loss of Treated Wood Cubes", "setting": "Gloeophyllum trabeum; Penflufen Retention 32 g/m^3", "result": 3.5, "unit": "%"}, {"measurement": "Mean Percent Weigh Loss of Treated Wood Cubes", "setting": "Gloeophyllum trabeum; Penflufen Retention 48 g/m^3", "result": 3.0, "unit": "%"}, {"measurement": "Mean Percent Weigh Loss of Treated Wood Cubes", "setting": "Gloeophyllum trabeum; Penflufen Retention 64 g/m^3", "result": 1.6, "unit": "%"}, {"measurement": "Mean Percent Weigh Loss of Treated Wood Cubes", "setting": "Gloeophyllum trabeum; Penflufen Retention 80 g/m^3", "result": 2.0, "unit": "%"}, {"measurement": "Mean Percent Weigh Loss of Treated Wood Cubes", "setting": "Fibroporia radiculosa; Penflufen Retention 8 g/m^3", "result": 12.0, "unit": "%"}, {"measurement": "Mean Percent Weigh Loss of Treated Wood Cubes", "setting": "Fibroporia radiculosa; Penflufen Retention 12 g/m^3", "result": 10.4, "unit": "%"}, {"measurement": "Mean Percent Weigh Loss of Treated Wood Cubes", "setting": "Fibroporia radiculosa; Penflufen Retention 16 g/m^3", "result": 8.2, "unit": "%"}, {"measurement": "Mean Percent Weigh Loss of Treated Wood Cubes", "setting": "Fibroporia radiculosa; Penflufen Retention 24 g/m^3", "result": 8.2, "unit": "%"}, {"measurement": "Mean Percent Weigh Loss of Treated Wood Cubes", "setting": "Fibroporia radiculosa; Penflufen Retention 32 g/m^3", "result": 5.4, "unit": "%"}, {"measurement": "Mean Percent Weigh Loss of Treated Wood Cubes", "setting": "Fibroporia radiculosa; Penflufen Retention 48 g/m^3", "result": 5.7, "unit": "%"}, {"measurement": "Mean Percent Weigh Loss of Treated Wood Cubes", "setting": "Fibroporia radiculosa; Penflufen Retention 64 g/m^3", "result": 4.4, "unit": "%"}, {"measurement": "Mean Percent Weigh Loss of Treated Wood Cubes", "setting": "Fibroporia radiculosa; Penflufen Retention 80 g/m^3", "result": 3.0, "unit": "%"}, {"measurement": "d50", "setting": "[1]", "result": "2 to 3", "unit": "microns"}]}]}
